TGI and GI50 data for three molecules are collected here from PubChem BioAssay (NCI).

Converted amounts (≈) assume the structure as drawn.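 How tested: cells in 96-well plates exposed to compound for 48 hours at five concentrations. GI50 marks 50% less growth. TGI denotes the concentration required for complete inhibition of growth.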 Bounds are passed on as bounds.

Among the test systems are MCF7 breast; A498 renal; NCI-H226 lung; NCI/ADR-RES ovarian; ACHN renal; NCI-H522 lung.
Common to all, as to assay: NCI anticancer screen, dose series, 48 h

As to `O=c1oc2ccccc2c(O)c1Cc1ccc(Cc2c(O)c3ccccc3oc2=O)cc1`, the TGI in the experiment with MCF7 breast, in the experiment on A498 renal, with NCI-H226 lung and in the experiment on NCI/ADR-RES ovarian was > 100 µM in each case.
With `O=C1NN(C2=NNC3(C(=O)N2)c2ccccc2-c2ccccc23)C(c2ccccc2)=N/C1=C/c1ccc(Cl)cc1`, the GI50 with MCF7 breast is 35.8 µg/mL (≈ 65.7 µM); with NCI/ADR-RES ovarian, 53.2 µg/mL (≈ 97.7 µM); in the experiment with ACHN renal, 50.4 µg/mL (≈ 92.5 µM). Also, the TGI in the experiment with MCF7 breast is 144 µg/mL; with NCI/ADR-RES ovarian it was > 150 µg/mL; in the experiment on ACHN renal it was > 150 µg/mL.
On to `COC(=O)C(Cc1cn(C(C)n2cc(CC(NC(C)=O)C(=O)OC)c3ccccc32)c2ccccc12)NC(C)=O` (configuration not stated), for which the TGI in the experiment with A498 renal and in the experiment with NCI-H522 lung was > 100 µM in each case.
